Source: PubChem BioAssay AID248 (DTP/NCI, 2004)
Values joined by “and” are separate entries in the source; they are usually repeats but may differ in a detail not shown here. Equal values may be shown once. Toxic doses and inconclusive results are not listed.

Test system: L1210 leukemia ip in BDF1 mice, survival T/C
Test: NCI In Vivo Anticancer Drug Screen. Data for tumor model L1210 Leukemia (intraperitoneal) in B6D2F1 (BDF1) mice
Conditions: endpoint: mean survival time, higher = longer survival
Method in brief: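 Mice bearing the transplanted tumor received compound or vehicle. Survival of the treated group was divided by that of the vehicle-treated control group to give the ratio.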

[1] = dose: 100.0 mg/kg/injection, schedule: Q04DX003 (ip), vehicle: saline
[2] = dose: 200.0 mg/kg/injection, schedule: Q04DX003 (ip), vehicle: saline
[3] = dose: 100.0 mg/kg/injection, schedule: Q04DX003 (ip), vehicle: saline with Tween-80
[4] = dose: 100.0 mg/kg/injection, schedule: Q01DX009 (ip), vehicle: Klucel (hydroxypropylcellulose) (HPC)
[5] = dose: 200.0 mg/kg/injection, schedule: Q01DX009 (ip), vehicle: Klucel (hydroxypropylcellulose) (HPC)
[6] = dose: 400.0 mg/kg/injection, schedule: Q01DX009 (ip), vehicle: Klucel (hydroxypropylcellulose) (HPC)
[7] = dose: 100.0 mg/kg/injection, schedule: Q01DX001 (ip), vehicle: carboxymethylcellulose (CMC)
[8] = dose: 200.0 mg/kg/injection, schedule: Q01DX001 (ip), vehicle: carboxymethylcellulose (CMC)
[9] = dose: 400.0 mg/kg/injection, schedule: Q01DX001 (ip), vehicle: carboxymethylcellulose (CMC)
[10] = dose: 100.0 mg/kg/injection, schedule: Q04DX002 (ip), vehicle: saline
[11] = dose: 50.0 mg/kg/injection, schedule: Q04DX003 (ip), vehicle: saline
[12] = dose: 50.0 mg/kg/injection, schedule: Q01DX009 (ip), vehicle: saline with Tween-80
[13] = dose: 100.0 mg/kg/injection, schedule: Q01DX009 (ip), vehicle: saline with Tween-80
[14] = dose: 200.0 mg/kg/injection, schedule: Q01DX009 (ip), vehicle: saline with Tween-80
[15] = dose: 100.0 mg/kg/injection, schedule: Q01DX001 (ip), vehicle: saline with Tween-80
[16] = dose: 200.0 mg/kg/injection, schedule: Q01DX001 (ip), vehicle: saline with Tween-80
[17] = dose: 200.0 mg/kg/injection, schedule: Q04DX003 (ip), vehicle: saline with Tween-80
[18] = dose: 400.0 mg/kg/injection, schedule: Q01DX001 (ip), vehicle: saline with Tween-80
[19] = dose: 400.0 mg/kg/injection, schedule: Q04DX003 (ip), vehicle: saline with Tween-80
[20] = dose: 100.0 mg/kg/injection, schedule: Q01DX001 (ip), vehicle: saline
[21] = dose: 200.0 mg/kg/injection, schedule: Q01DX001 (ip), vehicle: saline
[22] = dose: 400.0 mg/kg/injection, schedule: Q01DX001 (ip), vehicle: saline

Structure (SMILES): CCC1CN1CC1CO1 (centres undefined)
- T/C (dose: 4.0 mg/kg/injection, schedule: Q01DX Z (ip), vehicle: saline): 101 % of control
- T/C (dose: 7.0 mg/kg/injection, schedule: Q01DX Z (ip), vehicle: saline): 106 % of control
- T/C (dose: 10.0 mg/kg/injection, schedule: Q01DX Z (ip), vehicle: saline): 95 % of control
- T/C (dose: 33.0 mg/kg/injection, schedule: Q01DX Z (ip), vehicle: saline): 158 % of control and 196 % of control
- T/C (dose: 50.0 mg/kg/injection, schedule: Q01DX Z (ip), vehicle: saline): 123 % of control and 183 % of control and 218 % of control
- T/C (dose: 75.0 mg/kg/injection, schedule: Q01DX Z (ip), vehicle: saline): 120 % of control

Structure (SMILES): CN(C)CCCC#N
- T/C [1]: 97 % of control
- T/C [2]: 95 % of control

Structure (SMILES): Cc1cc(=O)oc2c(OC(=O)N(CCCl)CCCl)c(OC(=O)N(CCCl)CCCl)ccc12
- T/C (dose: 25.0 mg/kg/injection, schedule: Q04DX002 (ip), vehicle: Klucel (hydroxypropylcellulose) (HPC)): 90 % of control
- T/C (dose: 50.0 mg/kg/injection, schedule: Q04DX002 (ip), vehicle: Klucel (hydroxypropylcellulose) (HPC)): 94 % of control
- T/C (dose: 100.0 mg/kg/injection, schedule: Q04DX002 (ip), vehicle: Klucel (hydroxypropylcellulose) (HPC)): 97 % of control
- T/C (dose: 200.0 mg/kg/injection, schedule: Q04DX002 (ip), vehicle: Klucel (hydroxypropylcellulose) (HPC)): 90 % of control
- T/C (dose: 400.0 mg/kg/injection, schedule: Q04DX002 (ip), vehicle: Klucel (hydroxypropylcellulose) (HPC)): 103 % of control

Structure (SMILES): C/C(=N/N(C)C)c1ccc(Cl)cc1
- T/C (dose: 12.5 mg/kg/injection, schedule: Q01DX009 (ip), vehicle: saline): 105 % of control
- T/C (dose: 25.0 mg/kg/injection, schedule: Q01DX009 (ip), vehicle: saline): 112 % of control
- T/C (dose: 50.0 mg/kg/injection, schedule: Q01DX009 (ip), vehicle: saline): 111 % of control
- T/C [1]: 101 % of control

Structure (SMILES): CC(=O)CC(Br)CBr (centres undefined)
- T/C (dose: 25.0 mg/kg/injection, schedule: Q04DX003 (ip), vehicle: saline with Tween-80): 91 % of control
- T/C (dose: 50.0 mg/kg/injection, schedule: Q04DX003 (ip), vehicle: saline with Tween-80): 98 % of control
- T/C [3]: 100 % of control

Structure (SMILES): CCN(CC)c1ccc(/C=C\C(=O)c2ccccc2)cc1
- T/C [4]: 97 % of control
- T/C [5]: 100 % of control
- T/C [6]: 100 % of control

Structure (SMILES): CCOC(=O)Nc1ccc2c(c1)/C(=N/O)c1ccccc1-2
- T/C [7]: 94 % of control
- T/C [8]: 91 % of control
- T/C [9]: 91 % of control

Structure (SMILES): CC1(C)N=C(SCC(=O)c2ccccc2)NC1(C)C
- T/C (dose: 25.0 mg/kg/injection, schedule: Q04DX002 (ip), vehicle: saline): 101 % of control
- T/C (dose: 50.0 mg/kg/injection, schedule: Q04DX002 (ip), vehicle: saline): 101 % of control
- T/C [10]: 101 % of control

Structure (SMILES): O=S(=O)(Nc1cc(Cl)c(NS(=O)(=O)c2ccccc2)c(S(=O)(=O)c2ccccc2)c1Cl)c1ccccc1
- T/C (dose: 100.0 mg/kg/injection, schedule: Q01DX001 (ip), vehicle: Klucel (hydroxypropylcellulose) (HPC)): 97 % of control
- T/C (dose: 100.0 mg/kg/injection, schedule: Q04DX003 (ip), vehicle: Klucel (hydroxypropylcellulose) (HPC)): 101 % of control
- T/C (dose: 200.0 mg/kg/injection, schedule: Q01DX001 (ip), vehicle: Klucel (hydroxypropylcellulose) (HPC)): 93 % of control
- T/C (dose: 200.0 mg/kg/injection, schedule: Q04DX003 (ip), vehicle: Klucel (hydroxypropylcellulose) (HPC)): 102 % of control
- T/C (dose: 400.0 mg/kg/injection, schedule: Q01DX001 (ip), vehicle: Klucel (hydroxypropylcellulose) (HPC)): 97 % of control
- T/C (dose: 400.0 mg/kg/injection, schedule: Q04DX003 (ip), vehicle: Klucel (hydroxypropylcellulose) (HPC)): 106 % of control

Structure (SMILES): OCC1(CO)CC=CCC1
- T/C (dose: 25.0 mg/kg/injection, schedule: Q04DX003 (ip), vehicle: saline): 95 % of control
- T/C [11]: 105 % of control
- T/C [7]: 103 % of control
- T/C [1]: 94 % of control and 89 % of control
- T/C [8]: 95 % of control
- T/C [9]: 103 % of control

Structure (SMILES): C=C(c1cn(C(C)=O)c2ccccc12)c1cn(C(C)=O)c2ccccc12
- T/C [3]: 95 % of control

Structure (SMILES): CC1=CC(=O)C=CC1(C)C(Cl)(Cl)Cl (centres undefined)
- T/C [4]: 95 % of control
- T/C (dose: 100.0 mg/kg/injection, schedule: Q04DX003 (ip), vehicle: other): 100 % of control
- T/C [5]: 91 % of control
- T/C (dose: 200.0 mg/kg/injection, schedule: Q04DX003 (ip), vehicle: other): 94 % of control
- T/C (dose: 400.0 mg/kg/injection, schedule: Q04DX003 (ip), vehicle: other): 101 % of control

Structure (SMILES): O=C(N/N=C/c1cccc([N+](=O)[O-])c1)c1ccccc1Cl
- T/C [12]: 98 % of control
- T/C [13]: 107 % of control
- T/C [14]: 102 % of control

Structure (SMILES): COc1ccc(Cl)cc1NC(=O)Oc1ccc2ccccc2c1
- T/C [15]: 89 % of control
- T/C [13]: 98 % of control and 100 % of control
- T/C [3]: 91 % of control
- T/C [16]: 100 % of control
- T/C [14]: 98 % of control and 92 % of control
- T/C [17]: 96 % of control
- T/C [18]: 96 % of control
- T/C (dose: 400.0 mg/kg/injection, schedule: Q01DX009 (ip), vehicle: saline with Tween-80): 100 % of control and 91 % of control
- T/C [19]: 103 % of control

Structure (SMILES): COc1ccc(/C=C2/Oc3cc(O)ccc3C2=O)cc1
- T/C [15]: 90 % of control
- T/C [16]: 93 % of control
- T/C [18]: 86 % of control

Structure (SMILES): CSC(=N)c1cccc(OCCCOc2ccccc2)c1
- T/C (dose: 25.0 mg/kg/injection, schedule: Q01DX009 (ip), vehicle: saline with Tween-80): 94 % of control
- T/C [12]: 90 % of control
- T/C [13]: 90 % of control
- T/C [14]: 88 % of control

Structure (SMILES): CN(C)CN1C(=O)c2ccccc2C1=O
- T/C [4]: 103 % of control
- T/C [5]: 100 % of control
- T/C [6]: 104 % of control

Structure (SMILES): S=c1[nH]ccc2n[nH]nc12
- T/C [3]: 101 % of control
- T/C [17]: 98 % of control
- T/C [19]: 101 % of control

Structure (SMILES): Nc1nnc(N)n1N
- T/C (dose: 87.5 mg/kg/injection, schedule: Q04DX003 (ip), vehicle: Klucel (hydroxypropylcellulose) (HPC)): 105 % of control
- T/C (dose: 175.0 mg/kg/injection, schedule: Q04DX003 (ip), vehicle: Klucel (hydroxypropylcellulose) (HPC)): 100 % of control
- T/C (dose: 350.0 mg/kg/injection, schedule: Q04DX003 (ip), vehicle: Klucel (hydroxypropylcellulose) (HPC)): 103 % of control

Structure (SMILES): CCOC(=O)CCC(N)C(=O)O (centres undefined)
- T/C [10]: 110 % of control
- T/C (dose: 200.0 mg/kg/injection, schedule: Q04DX002 (ip), vehicle: saline): 106 % of control
- T/C (dose: 400.0 mg/kg/injection, schedule: Q04DX002 (ip), vehicle: saline): 102 % of control

Structure (SMILES): Nc1ncnc2c1ncn2C1OC(CO)CC1O (centres undefined)
- T/C (dose: 37.0 mg/kg/injection, schedule: Q01DX Z (ip), vehicle: carboxymethylcellulose (CMC)): 114 % of control
- T/C (dose: 50.0 mg/kg/injection, schedule: Q01DX001 (ip), vehicle: saline): 111 % of control
- T/C (dose: 75.0 mg/kg/injection, schedule: Q01DX Z (ip), vehicle: carboxymethylcellulose (CMC)): 111 % of control
- T/C [20]: 111 % of control
- T/C (dose: 150.0 mg/kg/injection, schedule: Q01DX Z (ip), vehicle: carboxymethylcellulose (CMC)): 114 % of control
- T/C [21]: 115 % of control
- T/C (dose: 300.0 mg/kg/injection, schedule: Q01DX Z (ip), vehicle: carboxymethylcellulose (CMC)): 114 % of control and 115 % of control
- T/C [22]: 123 % of control

Structure (SMILES): CCOCCC(=O)NCc1ccccc1
- T/C [15]: 100 % of control
- T/C [16]: 104 % of control
- T/C [18]: 106 % of control

Structure (SMILES): O=C(O)C1(C(=O)O)CCOCC1
- T/C [11]: 93 % of control
- T/C (dose: 100.0 mg/kg/injection, schedule: Q01DX009 (ip), vehicle: saline): 104 % of control
- T/C [1]: 98 % of control
- T/C (dose: 200.0 mg/kg/injection, schedule: Q01DX009 (ip), vehicle: saline): 102 % of control
- T/C [2]: 104 % of control
- T/C (dose: 400.0 mg/kg/injection, schedule: Q01DX009 (ip), vehicle: saline): 96 % of control
- T/C (dose: 400.0 mg/kg/injection, schedule: Q04DX003 (ip), vehicle: saline): 103 % of control

Structure (SMILES): Cc1cc(Cl)nc2ccc(Cc3ccc(Br)cc3)cc12
- T/C [20]: 95 % of control
- T/C [21]: 96 % of control
- T/C [22]: 91 % of control
